The test system of data set [1] is MDA-MB-468LN. Put plainly: Cell proliferation over 72 hrs, resazurin blue. In kind it is cell-based, human. The procedure:
Preceding proliferation studies, cells were trypsinized and seeded into 96-well plates (5,000 cells/well). […] After 4 hrs, well fluorescence was measured (λex 560 nm, λem 590 nm) using a fluorophotometer (SpectraMax Gemini; Molecular Devices, Sunnyvale, Calif.). IC50 was determined as the midpoint between saline (positive) and cell-free (negative) controls for each plate.
For orientation: Resazurin is reduced to fluorescent resorufin, in cell work by metabolically active cells.

Data set [2] in a line: Tissue distribution after subcutaneous cisplatin or cisplatin-HA into right mammary fat pad. In kind it is in vivo, Sprague-Dawley rats. The procedure:
Animals were allowed to recover with access to food and water. […] Organs and tissues were washed with 0.9% saline and frozen (−80° C.) until analysis. Plasma was separated by centrifugation from whole blood and frozen (−80° C.).
In vitro release samples (n=3) and plasma samples (n=5) were diluted 200-fold and 10-fold, respectively, with 0.1% nitric acid for analysis. […] Lymph nodes were processed similarly using 10 mg of tissue. After digestion, samples were homogenized (Tissue Tearor, BioSpec Products Inc., Bartlesville, Okla.). All samples were centrifuged (17 000×g, 20 min), and the supernate used for analysis.
Analysis was performed on a Varian SpectrAA GTA-110 with graphite furnace and partition tubes. Samples (21 μL) were injected using the autosampler, followed by 19 μL of 0.1% nitric acid. […] The furnace program was as follows: ramp 25 to 80° C., hold 2 s, ramp to 120° C., hold 10 s, ramp to 1000° C., hold 5 s, ramp to 2700° C., hold 2 s, cool to 25° C. over 20 s. The graphite partition tube was cleaned every 40 samples by baking at 2800° C. for 7 s. Argon was used as the injection and carrier gas.

Data set [3] concerns MDA-MB-231. Nature of the data set: In vitro cell toxicity (DMEM, resazurin blue, 72 hrs). In kind it is cell-based, human. The note with it: for IC50: cisplatin basis. Here is the method:
(§1) Cell lines were seeded into 96-well plates (5000 cells/well) in DMEM medium supplemented with 5% FBS and 1% penicillin/streptomycin.

Data set [4] relates to MCF7. The description is as above. Type of data set: cell-based, human. Here is the method:
as §1

Data set [5] concerns MDA-1986 cells. Put plainly: In vivo efficacy of HA-cisplatin, orthotopic HNSCC model. Also noted: species or system Nu/Nu female athymic nude mice. The note with it: intravenous, weekly dose of 3.3 mg/kg for 3 weeks; 3 mice. From the text:
The in vivo efficacy of HA-cisplatin was studied. All treatment began once animal HNSCC tumors reached 100 mm3 volume. Treatment commenced for 3 weeks. All animals were given 5×10^5 MDA-1986 cells in the buccal mucosa of the left cheek (which is a novel orthotopic HNSCC model I developed this year) and tumors develop in 2-3 weeks.

The subject of data set [6] is MDA-MB-468LN tumor cells. Put plainly: Efficacy of HA-doxorubicin vs intravenous doxorubicin, breast tumor xenograft. In kind it is in vivo, nude mice. The note with it: 6 weeks post-implantation; in saline via the tail vein, doses at 3 and 5 weeks. Here is the method: Nude nu/nu mice were implanted with 1×10^6 cells (MDA-MB-468LN human breast cancer cells) into the mammary fatpad, after approximately 4 weeks a 100-200 mm^3 tumor had developed in the axillary lymph node package. Animals were randomly divided into four treatment groups of five animals each: intravenous saline, s.q. HA, intravenous cisplatin, or s.q. HA-cisplatin. At this point, doses were administered to the animals. In the HA-cisplatin and the HA groups, HA-cisplatin (3.3 mg/kg based on Pt-content) or HA (3.3 mg/kg) was dissolved in 100 mcL saline was injected subcutaneously peritumorally. […] In all study groups, a second dose was administered after 1 week. Tumor volumes were measured weekly using calipers and the formula: Volume=0.52×(width^2*length). Animals were euthanized when the tumor volume exceeded […] or the body score index fell below 2.
To evaluate the efficacy of HA-doxorubicin conjugates injected subcutaneously in the […] compared with intravenous doxorubicin, the following experiment was performed. MDA-MB-468LN tumor cells into nude mice as described in [128] and divided into four groups of five animals each. After 3 weeks, HA-DOX was injected peritumorally at 3.3 mg/kg (DOX basis), DOX was injected in saline via the tail vein, HA was injected peritumorally, and saline was injected via the tail vein. […]

pIC50: −log10 of the molar value. Read-outs that look alike come from different tables or passages of the source. Marks after values point to notes of the source that are not given here.

The IC50 is the concentration that gives 50% inhibition. What is called pIC50 is the negative decadic logarithm of the IC50, by convention in mol/L.

Turning to `N.N.[Cl][Pt][Cl]` [Cisplatin, cis-diamminedichloroplatinum, reference compound], the IC50 turned out to be 5 µg/mL in data set [1] (HA carriers on a Pt-basis equivalent to cisplatin); 4 µg/mL in data set [3]; 7 µg/mL in data set [3] (listed as cisplatin); 7 µg/mL in data set [4] (MCF-7, cisplatin basis). Moreover, the pIC50 in data set [1] (Pt-basis, read-out: IC50) was 4.77; in data set [3] (read-out: IC50) it was 4.89; in data set [4] (MCF-7, read-out: IC50), 4.64. Moreover, the “AUC (0-96 hrs)” value in data set [2] (Bladder, subcutaneous into right mammary fatpad of female rats) amounted to 208.5 µg·h/g; in data set [2] (Brain, subcutaneous into right mammary fatpad) it was 442.5 µg·h/g; in data set [2] (Heart, subcutaneous into right mammary fatpad) it was 459.0 µg·h/g; in data set [2] (Kidneys, subcutaneous into right mammary fatpad), 650.9 µg·h/g; in data set [2] (Left lymph node (LLN), subcutaneous into right mammary fatpad), 349.5 µg·h/g; in data set [2] (Liver, subcutaneous into right mammary fatpad), 415.6 µg·h/g. Besides, the “AUC (0-96 hrs)” value was 409.8 µg·h/g in data set [2] (Lungs, subcutaneous into right mammary fatpad); 371.5 µg·h/g in data set [2] (Muscle, subcutaneous into right mammary fatpad); 174.1 µg·h/g in data set [2] (Plasma, subcutaneous into right mammary fatpad); 446.0 ^† μg · hr/g in data set [2] (Right lymph node (RLN), subcutaneous into right mammary fatpad, p < 0.05); 349.1 µg·h/g in data set [2] (Spleen, subcutaneous into right mammary fatpad). Besides, the “serum Cmax” value in data set [2] (intravenous (as worded in legend of FIG. 10B)) is recorded as “over 4 micrograms/mL”. Moreover, the tumor growth delay result in data set [5] is “about 3 weeks”.

Consider `COc1cccc2c1C(=O)c1c(O)c3c(c(O)c1C2=O)C[C@@](O)(C(=O)CO)C[C@@H]3O[C@H]1C[C@H](N)[C@H](O)[C@H](C)O1` [DOX, doxorubicin], for which the tumor volume result in data set [6] is listed as “greater than 300 mm^3”.

These data come from patent publication US8088412B2, “Intralymphatic chemotherapy drug carriers” (priority 2008, dated 2012).
